“And” between values parts separate entries of the source, which are not always exact repeats. Identical values can stand only once.
Tests used:
[1] = biological target: SfurOBP1 (Sogatella furcifera, UniProt V5T8N5); assay: biochemical; assay type: binding; conditions: for Fluorescence competitive binding assay, fluorescence intensity: OBP1, three replicate columns
Outline: (§1)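 In 50 mM Tris-HCl pH 7.4, odorants displace 1-NPN (2.0 µM) from 2.0 µM protein. Emission at 390–490 nm under 337 nm excitation is measured 2 min after competitor addition, in triplicate. Ki is obtained from IC50 and the 1-NPN dissociation constant.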

[2] = biological target: SfurOBP11 (Sogatella furcifera, UniProt V5T6E3); assay: biochemical; assay type: binding
Outline: as §1

[3] = biological target: SfurOBP2 (Sogatella furcifera, UniProt V5T759); assay: biochemical; assay type: binding
Outline: as §1

[4] = biological target: SfurOBP3 (Sogatella furcifera, UniProt V5T818); assay: biochemical; assay type: binding; conditions: for Fluorescence competitive binding assay, fluorescence intensity: OBP3, three replicate columns
Outline: as §1

[5] = test system: S. furcifera adults; assay: Y-tube olfactometer behavioral trials; assay type: in vivo, Sogatella furcifera; conditions: odorant 50 µL/L vs hexane
Outline: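 Single S. furcifera adults (2 days post-emergence, starved 0.5 h) chose between odorant (100 µL of 50 µL/L on filter paper) and hexane control in a glass Y-tube, charcoal-filtered humidified air 300 mL/min per arm, 25 ± 1 °C, 50% RH. Choice scored if insect passed half an arm and stayed >1 min within 10 min; 45 insects per compound, chi-squared test.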

Chain of SfurOBP2 (V5T759 entry or part of it): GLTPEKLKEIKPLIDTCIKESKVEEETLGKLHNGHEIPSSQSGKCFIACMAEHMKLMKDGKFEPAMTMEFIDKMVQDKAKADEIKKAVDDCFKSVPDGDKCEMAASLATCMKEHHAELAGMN
Chain of SfurOBP3 (V5T818 entry or part of it): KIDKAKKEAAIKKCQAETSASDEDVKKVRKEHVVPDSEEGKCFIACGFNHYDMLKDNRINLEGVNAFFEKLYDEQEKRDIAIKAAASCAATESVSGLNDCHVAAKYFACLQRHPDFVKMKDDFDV
Chain of SfurOBP1 (V5T8N5 entry or part of it): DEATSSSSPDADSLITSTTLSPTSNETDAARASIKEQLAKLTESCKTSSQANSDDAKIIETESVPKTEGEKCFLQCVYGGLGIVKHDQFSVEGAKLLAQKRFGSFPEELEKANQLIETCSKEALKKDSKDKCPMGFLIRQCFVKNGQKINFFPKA
Chain of SfurOBP11 (V5T6E3 entry or part of it): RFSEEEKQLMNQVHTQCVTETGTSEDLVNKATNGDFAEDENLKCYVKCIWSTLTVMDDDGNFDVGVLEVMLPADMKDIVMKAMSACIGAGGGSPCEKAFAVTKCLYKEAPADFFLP

For CCCCCC(C)=O [2-heptanone], the “Fluorescence competitive binding assay, fluorescence intensity” value ([1]; ligand concentration 2 (μM)) was 5565 and 5797 and 5680, the “Fluorescence competitive binding assay, fluorescence intensity” value ([1]; ligand concentration 4 (μM)) was 6133 and 7369 and 7766 and the “Fluorescence competitive binding assay, fluorescence intensity” value ([1]; ligand concentration 6 (μM)) was 7319 and 6450 and 6758. For the same compound, the “Fluorescence competitive binding assay, fluorescence intensity” value ([1]; ligand concentration 8 (μM)) was 6247 and 6677 and 6608, the “Fluorescence competitive binding assay, fluorescence intensity” value ([1]; ligand concentration 10 (μM)) was 5974 and 6580 and 6200 and the “Fluorescence competitive binding assay, fluorescence intensity” value ([1]; ligand concentration 12 (μM)) was 6115 and 6844 and 6487. The “Fluorescence competitive binding assay, fluorescence intensity” value ([1]; ligand concentration 14 (μM)) was 7227 and 6939 and 7296, the “Fluorescence competitive binding assay, fluorescence intensity” value ([1]; ligand concentration 16 (μM)) was 7221 and 7791 and 6651 and the “Fluorescence competitive binding assay, fluorescence intensity” value ([1]; ligand concentration 18 (μM)) was 6902 and 6623 and 6730. For the same compound, the “Fluorescence competitive binding assay, fluorescence intensity” value ([1]; ligand concentration 20 (μM)) was 6454 and 6429 and 6479, the IC50 ([1]; SfurOBP1, protein and 1-NPN both 2.0 µM, competitor 2-20 µM, read-out: IC50) was > 20 µM and the IC50 ([2]; SfurOBP11, protein and 1-NPN both 2.0 µM, competitor 2-20 µM, read-out: IC50) was > 20 µM. The “Fluorescence intensity, fluorescence competitive binding assay, OBP11” value (from here on “Fluorescence intensity … OBP11”) ([2]; ligand concentration 2, replicate 1) was 24306, the “Fluorescence intensity … OBP11” value ([2]; ligand concentration 2, replicate 2) was 24787 and the “Fluorescence intensity … OBP11” value ([2]; ligand concentration 2, replicate 3) was 25268. For the same compound, the “Fluorescence intensity … OBP11” value ([2]; ligand concentration 4, replicate 1) was 24848, the “Fluorescence intensity … OBP11” value ([2]; ligand concentration 4, replicate 2) was 24623 and the “Fluorescence intensity … OBP11” value ([2]; ligand concentration 4, replicate 3) was 25072. For the same compound, the “Fluorescence intensity … OBP11” value ([2]; ligand concentration 6, replicate 1) was 24984, the “Fluorescence intensity … OBP11” value ([2]; ligand concentration 6, replicate 2) was 24187 and the “Fluorescence intensity … OBP11” value ([2]; ligand concentration 6, replicate 3) was 25781. For the same compound, the “Fluorescence intensity … OBP11” value ([2]; ligand concentration 8, replicate 1) was 23438, the “Fluorescence intensity … OBP11” value ([2]; ligand concentration 8, replicate 2) was 23156 and the “Fluorescence intensity … OBP11” value ([2]; ligand concentration 8, replicate 3) was 23719. The “Fluorescence intensity … OBP11” value ([2]; ligand concentration 10, replicate 1) was 22448, the “Fluorescence intensity … OBP11” value ([2]; ligand concentration 10, replicate 2) was 22213 and the “Fluorescence intensity … OBP11” value ([2]; ligand concentration 10, replicate 3) was 22684. For the same compound, the “Fluorescence intensity … OBP11” value ([2]; ligand concentration 12, replicate 1) was 22134, the “Fluorescence intensity … OBP11” value ([2]; ligand concentration 12, replicate 2) was 22969 and the “Fluorescence intensity … OBP11” value ([2]; ligand concentration 12, replicate 3) was 22151. The “Fluorescence intensity … OBP11” value ([2]; ligand concentration 14, replicate 1) was 21048, the “Fluorescence intensity … OBP11” value ([2]; ligand concentration 14, replicate 2) was 20368 and the “Fluorescence intensity … OBP11” value ([2]; ligand concentration 14, replicate 3) was 20708. The “Fluorescence intensity … OBP11” value ([2]; ligand concentration 16, replicate 1) was 19801, the “Fluorescence intensity … OBP11” value ([2]; ligand concentration 16, replicate 2) was 20307 and the “Fluorescence intensity … OBP11” value ([2]; ligand concentration 16, replicate 3) was 20932. For the same compound, the “Fluorescence intensity … OBP11” value ([2]; ligand concentration 18, replicate 1) was 20181, the “Fluorescence intensity … OBP11” value ([2]; ligand concentration 18, replicate 2) was 20256 and the “Fluorescence intensity … OBP11” value ([2]; ligand concentration 18, replicate 3) was 20300. For the same compound, the “Fluorescence intensity … OBP11” value ([2]; ligand concentration 20, replicate 1) was 20105, the “Fluorescence intensity … OBP11” value ([2]; ligand concentration 20, replicate 2) was 20028 and the “Fluorescence intensity … OBP11” value ([2]; ligand concentration 20, replicate 3) was 20212. For the same compound, the IC50 ([3]; SfurOBP2, protein and 1-NPN both 2.0 µM, competitor 2-20 µM, read-out: IC50) was > 20 µM, the “Fluorescence competitive binding assay, OBP2 (raw fluorescence reading)” value ([3]; ligand concentration 2 (unit not given), replicate column 1 of 3) was 19792 and the “Fluorescence competitive binding assay, OBP2 (raw fluorescence reading)” value ([3]; ligand concentration 2 (unit not given), replicate column 2 of 3) was 17859. For the same compound, the “Fluorescence competitive binding assay, OBP2 (raw fluorescence reading)” value ([3]; ligand concentration 2 (unit not given), replicate column 3 of 3) was 20079, the “Fluorescence competitive binding assay, OBP2 (raw fluorescence reading)” value ([3]; ligand concentration 4 (unit not given), replicate column 1 of 3) was 17338 and the “Fluorescence competitive binding assay, OBP2 (raw fluorescence reading)” value ([3]; ligand concentration 4 (unit not given), replicate column 2 of 3) was 18012. For the same compound, the “Fluorescence competitive binding assay, OBP2 (raw fluorescence reading)” value ([3]; ligand concentration 4 (unit not given), replicate column 3 of 3) was 20388, the “Fluorescence competitive binding assay, OBP2 (raw fluorescence reading)” value ([3]; ligand concentration 6 (unit not given), replicate column 1 of 3) was 17013 and the “Fluorescence competitive binding assay, OBP2 (raw fluorescence reading)” value ([3]; ligand concentration 6 (unit not given), replicate column 2 of 3) was 18530. For the same compound, the “Fluorescence competitive binding assay, OBP2 (raw fluorescence reading)” value ([3]; ligand concentration 6 (unit not given), replicate column 3 of 3) was 19352, the “Fluorescence competitive binding assay, OBP2 (raw fluorescence reading)” value ([3]; ligand concentration 8 (unit not given), replicate column 1 of 3) was 15771 and the “Fluorescence competitive binding assay, OBP2 (raw fluorescence reading)” value ([3]; ligand concentration 8 (unit not given), replicate column 2 of 3) was 11853. For the same compound, the “Fluorescence competitive binding assay, OBP2 (raw fluorescence reading)” value ([3]; ligand concentration 8 (unit not given), replicate column 3 of 3) was 17932, the “Fluorescence competitive binding assay, OBP2 (raw fluorescence reading)” value ([3]; ligand concentration 10 (unit not given), replicate column 1 of 3) was 15741 and the “Fluorescence competitive binding assay, OBP2 (raw fluorescence reading)” value ([3]; ligand concentration 10 (unit not given), replicate column 2 of 3) was 17236. For the same compound, the “Fluorescence competitive binding assay, OBP2 (raw fluorescence reading)” value ([3]; ligand concentration 10 (unit not given), replicate column 3 of 3) was 17972, the “Fluorescence competitive binding assay, OBP2 (raw fluorescence reading)” value ([3]; ligand concentration 12 (unit not given), replicate column 1 of 3) was 14577 and the “Fluorescence competitive binding assay, OBP2 (raw fluorescence reading)” value ([3]; ligand concentration 12 (unit not given), replicate column 2 of 3) was 14468. The “Fluorescence competitive binding assay, OBP2 (raw fluorescence reading)” value ([3]; ligand concentration 12 (unit not given), replicate column 3 of 3) was 15583, the “Fluorescence competitive binding assay, OBP2 (raw fluorescence reading)” value ([3]; ligand concentration 14 (unit not given), replicate column 1 of 3) was 14055 and the “Fluorescence competitive binding assay, OBP2 (raw fluorescence reading)” value ([3]; ligand concentration 14 (unit not given), replicate column 2 of 3) was 13126. For the same compound, the “Fluorescence competitive binding assay, OBP2 (raw fluorescence reading)” value ([3]; ligand concentration 14 (unit not given), replicate column 3 of 3) was 14409, the “Fluorescence competitive binding assay, OBP2 (raw fluorescence reading)” value ([3]; ligand concentration 16 (unit not given), replicate column 1 of 3) was 12777 and the “Fluorescence competitive binding assay, OBP2 (raw fluorescence reading)” value ([3]; ligand concentration 16 (unit not given), replicate column 2 of 3) was 13653. For the same compound, the “Fluorescence competitive binding assay, OBP2 (raw fluorescence reading)” value ([3]; ligand concentration 16 (unit not given), replicate column 3 of 3) was 13817, the “Fluorescence competitive binding assay, OBP2 (raw fluorescence reading)” value ([3]; ligand concentration 18 (unit not given), replicate column 1 of 3) was 17551 and the “Fluorescence competitive binding assay, OBP2 (raw fluorescence reading)” value ([3]; ligand concentration 18 (unit not given), replicate column 2 of 3) was 16085. For the same compound, the “Fluorescence competitive binding assay, OBP2 (raw fluorescence reading)” value ([3]; ligand concentration 18 (unit not given), replicate column 3 of 3) was 21813, the “Fluorescence competitive binding assay, OBP2 (raw fluorescence reading)” value ([3]; ligand concentration 20 (unit not given), replicate column 1 of 3) was 14165 and the “Fluorescence competitive binding assay, OBP2 (raw fluorescence reading)” value ([3]; ligand concentration 20 (unit not given), replicate column 2 of 3) was 14167. For the same compound, the “Fluorescence competitive binding assay, OBP2 (raw fluorescence reading)” value ([3]; ligand concentration 20 (unit not given), replicate column 3 of 3) was 13571, the “Fluorescence competitive binding assay, fluorescence intensity” value ([4]; ligand concentration 2) was 37101 and 37506 and 37304 and the “Fluorescence competitive binding assay, fluorescence intensity” value ([4]; ligand concentration 4) was 36141 and 37871 and 37816. The “Fluorescence competitive binding assay, fluorescence intensity” value ([4]; ligand concentration 6) was 36419 and 39158 and 37789, the “Fluorescence competitive binding assay, fluorescence intensity” value ([4]; ligand concentration 8) was 33665 and 34797 and 35932 and the “Fluorescence competitive binding assay, fluorescence intensity” value ([4]; ligand concentration 10) was 33290 and 35900 and 35256. For the same compound, the “Fluorescence competitive binding assay, fluorescence intensity” value ([4]; ligand concentration 12) was 29962 and 33001 and 33859, the “Fluorescence competitive binding assay, fluorescence intensity” value ([4]; ligand concentration 14) was 28260 and 30707 and 32190 and the “Fluorescence competitive binding assay, fluorescence intensity” value ([4]; ligand concentration 16) was 28891 and 29426 and 29159. The “Fluorescence competitive binding assay, fluorescence intensity” value ([4]; ligand concentration 18) was 26989 and 27471 and 26506, the “Fluorescence competitive binding assay, fluorescence intensity” value ([4]; ligand concentration 20) was 26994 and 26547 and 27440 and the “binding affinity to SfurOBP3 (in words)” value ([4]; SfurOBP3) was “high binding affinities”. For the same compound, the IC50 ([4]; SfurOBP3, protein and 1-NPN both 2.0 µM, competitor 2-20 µM, read-out: IC50) was 15.5 µM, the “behavioral response of S. furcifera (in words)” value [5] was “strongly attracted” and the “number of insects choosing hexane arm” value ([5]; adults) was 8. For the same compound, the “number of insects choosing volatilies arm” value ([5]; adults) was 21 and the “number of insects failed (no choice)” value ([5]; adults) was 11.
